Measurements published in patent US11504382B2, “Tricyclic inhibitors of Hepatitis B virus” (Antios Therapeutics, Inc., priority 2018, dated 2022).
Where two headings read alike, the source gives them in different places.

System: HBV
Assay: HBV inhibition assay in HepAD38 cells (extracellular HBV DNA by direct qPCR)
Type: cell-based, Hepatitis B virus
Conditions: 96 hours; for EC50: 8-point dose-response curve, read-out: HBV inh EC50
[1] = Hepatitis B virus, 0.1 μM, relative to non-treated reference, read-out: Anti HBV Activity (conc μM)

Row | Compound | EC50 (Hepatitis B virus) | also measured
1 | Cn1cc2c(c1C(=O)Nc1ccc(F)c(F)c1)OC[C@H]1CCC[C@@H]1NS2(=O)=O [Example E9, (5aS,8aS)—N-(3,4-difluorophenyl)-2-methyl-5a,6,7,8,8a,9-hexahydro-2H,5H-cyclopenta[f]pyrrolo[3,4-b][1,4,5]oxathiazocine-1-carboxamide 4,4-dioxide] | < 1 µM | –
2 | Cc1cc(NC(=O)c2c3c(cn2C)S(=O)(=O)NC2CN(C(=O)c4ncoc4C)CC2(C)CO3)ccc1F (stereo not drawn) [Example E87, cis-N-(4-fluoro-3-methylphenyl)-7,10a-dimethyl-2-(5-methyloxazole-4-carbonyl)-2,3,3a,4,10,10a-hexahydro-1H,7H-dipyrrolo[3,4-b:3′,4′-f][1,4,5]oxathiazocine-8-carboxamide 5,5-dioxide] | < 1 µM | –
3 | CCOC(=O)N1CC2COc3c(cn(C)c3C(=O)Nc3cc(F)c(F)c(F)c3)S(=O)(=O)NC2C1 (racemic) [Example E10, Cis-Ethyl 7-methyl-8-((3,4,5-trifluorophenyl)carbamoyl)-3a,4,10,10a-tetrahydro-1H,7H-dipyrrolo[3,4-b:3′,4′-f][1,4,5]oxathiazocine-2(3H)-carboxylate 5,5-dioxide] | < 1 µM | inhibition at 0.5 µM (Hepatitis B virus, 0.5 μM, relative to non-treated reference, read-out: Anti HBV Activity (conc μM)): > 50%
4 | Cc1nnc(C(=O)N2CC3NS(=O)(=O)c4cn(C)c(C(=O)Nc5ccc(F)c(C)c5)c4OCC3(C)C2)o1 (single isomer, unassigned) [Example E95, N-(4-fluoro-3-methylphenyl)-7,10a-dimethyl-2-(5-methyl-1,3,4-oxadiazole-2-carbonyl)-2,3,3a,4,10,10a-hexahydro-1H,7H-dipyrrolo[3,4-b:3′,4′-f][1,4,5]oxathiazocine-8-carboxamide 5,5-dioxide (Chiral 3aS,10aS or 3aR,10aR - Stereochemistry unknown)] | – | EC50: < 1 µM
5 | Cn1cc2c(c1C(=O)Nc1cc(F)c(F)c(F)c1)OCC1CN(C(=O)c3nonc3N)CC1NS2(=O)=O (stereo not drawn) [Example E60, cis-2-(4-amino-1,2,5-oxadiazole-3-carbonyl)-7-methyl-N-(3,4,5-trifluorophenyl)-2,3,3a,4,10,10a-hexahydro-1H,7H-dipyrrolo[3,4-b:3′,4′-f][1,4,5]oxathiazocine-8-carboxamide 5,5-dioxide] | < 1 µM | –
6 | Cc1nnc(C(=O)N2C[C@@H]3COc4c(cn(C)c4C(=O)Nc4ccc(F)c(C)c4)S(=O)(=O)N[C@@H]3C2)s1 (relative stereo) [Example E62, cis-N-(4-fluoro-3-methylphenyl)-7-methyl-2-(5-methyl-1,3,4-thiadiazole-2-carbonyl)-2,3,3a,4,10,10a-hexahydro-1H,7H-dipyrrolo[3,4-b:3′,4′-f][1,4,5]oxathiazocine-8-carboxamide 5,5-dioxide] | < 1 µM | –
7 | Cc1nnc(C(=O)N2CC3COc4c(cn(C)c4C(=O)Nc4cc(F)c(F)c(F)c4)S(=O)(=O)NC3C2)o1 (stereo not drawn) [Example E51, cis-7-methyl-2-(5-methyl-1,3,4-oxadiazole-2-carbonyl)-N-(3,4,5-trifluorophenyl)-2,3,3a,4,10,10a-hexahydro-1H,7H-dipyrrolo[3,4-b:3′,4′-f][1,4,5]oxathiazocine-8-carboxamide 5,5-dioxide] | < 1 µM | inhibition at 0.05 µM (Hepatitis B virus, 0.05 μM, relative to non-treated reference, read-out: Anti HBV Activity (conc μM)): > 50%
8 | Cc1cc(NC(=O)c2c3c(cn2C)S(=O)(=O)NC2CN(C(=O)C4(C)CCCO4)CC2(C)CO3)ccc1F (stereo not drawn) [Example E88, cis-N-(4-fluoro-3-methylphenyl)-7,10a-dimethyl-2-(2-methyltetrahydrofuran-2-carbonyl)-2,3,3a,4,10,10a-hexahydro-1H,7H-dipyrrolo[3,4-b:3′,4′-f][1,4,5]oxathiazocine-8-carboxamide 5,5-dioxide] | < 1 µM | –
9 | Cc1cc(NC(=O)c2c3c(cn2C)S(=O)(=O)NC2CN(C(=O)c4ccc(O)nc4)CC2CO3)ccc1F (stereo not drawn) [Example E53, cis-N-(4-fluoro-3-methylphenyl)-2-(6-hydroxynicotinoyl)-7-methyl-2,3,3a,4,10,10a-hexahydro-1H,7H-dipyrrolo[3,4-b:3′,4′-f][1,4,5]oxathiazocine-8-carboxamide 5,5-dioxide] | – | inhibition at 0.1 µM [1]: < 50%
10 | Cc1cc(NC(=O)c2c3c(cn2C)S(=O)(=O)NC2CN(C(=O)C45CC(CO4)C5)CC2(C)CO3)ccc1F (stereo not drawn) [Example E90, cis-2-(2-oxabicyclo[2.1.1]hexane-1-carbonyl)-N-(4-fluoro-3-methylphenyl)-7,10a-dimethyl-2,3,3a,4,10,10a-hexahydro-1H,7H-dipyrrolo[3,4-b:3′,4′-f][1,4,5]oxathiazocine-8-carboxamide 5,5-dioxide] | < 1 µM | –
11 | C[C@@H](O)[C@H](N)C(=O)N1C[C@@H]2COc3c(cn(C)c3C(=O)Nc3cc(F)c(F)c(F)c3)S(=O)(=O)N[C@@H]2C1 (mixture of isomers) [Example E69, cis-2-(L-threonyl)-7-methyl-N-(3,4,5-trifluorophenyl)-2,3,3a,4,10,10a-hexahydro-1H,7H-dipyrrolo[3,4-b:3′,4′-f][1,4,5]oxathiazocine-8-carboxamide 5,5-dioxide] | – | inhibition at 0.1 µM [1]: < 50%
12 | Cc1cc(NC(=O)c2c3c(cn2C)S(=O)(=O)NC2C(=O)N(Cc4ccccc4)CC2CO3)ccc1F (stereo not drawn) [Example E155, Cis 2-benzyl-N-(4-fluoro-3-methylphenyl)-7-methyl-3-oxo-2,3,3a,4,10,10a-hexahydro-1H,7H-dipyrrolo[3,4-b:3′,4′-f][1,4,5]oxathiazocine-8-carboxamide 5,5-dioxide] | < 1 µM | –
13 | Cc1cc(NC(=O)c2c3c(cn2C)S(=O)(=O)N[C@H]2CN(C(=O)C4CCO4)C[C@H]2CO3)ccc1F (stereo partly drawn) [Example E110, (3aR,10aR)—N-(4-fluoro-3-methylphenyl)-7-methyl-2-(oxetane-2-carbonyl)-2,3,3a,4,10,10a-hexahydro-1H,7H-dipyrrolo[3,4-b:3′,4′-f][1,4,5]oxathiazocine-8-carboxamide 5,5-dioxide] | < 1 µM | –
14 | Cc1cc(NC(=O)c2c3c(cn2C)S(=O)(=O)N[C@H]2CN(C(=O)C45CC(CO4)C5)C[C@H]2CO3)ccc1F [Example E109, (3aR,10aR)-2-(2-oxabicyclo[2.1.1]hexane-1-carbonyl)-N-(4-fluoro-3-methylphenyl)-7-methyl-2,3,3a,4,10,10a-hexahydro-1H,7H-dipyrrolo[3,4-b:3′,4′-f][1,4,5]oxathiazocine-8-carboxamide 5,5-dioxide] | < 1 µM | –
15 | Cc1nnc(N2C[C@H]3COc4c(cn(C)c4C(=O)Nc4cc(F)c(F)c(F)c4)S(=O)(=O)N[C@H]3C2)o1 [Example E120, (3aR,10aR)-7-methyl-2-(5-methyl-1,3,4-oxadiazol-2-yl)-N-(3,4,5-trifluorophenyl)-2,3,3a,4,10,10a-hexahydro-1H,7H-dipyrrolo[3,4-b:3′,4′-f][1,4,5]oxathiazocine-8-carboxamide 5,5-dioxide] | < 1 µM | –
16 | Cn1cc2c(c1C(=O)Nc1cc(F)c(F)c(F)c1)OCC1CN(c3cnccn3)CC1NS2(=O)=O (stereo not drawn) [Example E82, cis-7-methyl-2-(pyrazin-2-yl)-N-(3,4,5-trifluorophenyl)-2,3,3a,4,10,10a-hexahydro-1H,7H-dipyrrolo[3,4-b:3′,4′-f][1,4,5]oxathiazocine-8-carboxamide 5,5-dioxide] | – | inhibition at 0.1 µM [1]: > 50%
17 | Cc1cc(NC(=O)c2c3c(cn2C)S(=O)(=O)NC2CN(C(=O)C4(C)COC4)CCC2CO3)ccc1F (racemic) [Example E141, Trans-N-(4-fluoro-3-methylphenyl)-2-methyl-7-(3-methyloxetane-3-carbonyl)-5,5a,6,7,8,9,9a,10-octahydro-2H-pyrido[3,4-f]pyrrolo[3,4-b][1,4,5]oxathiazocine-1-carboxamide 4,4-dioxide] | – | EC50: < 1 µM
18 | ethyl 7-methyl-8-((3,4,5-trifluorophenyl)carbamoyl)-3a,4,10,10a-tetrahydro-1H,7H-dipyrrolo[3,4-b:3′,4′-f][1,4,5]oxathiazocine-2(3H)-carboxylate 5,5-dioxide (3aS,10aS) [Example E32] | – | Anti HBV Activity (conc μM) (0.1 μM, relative to non-treated reference): A (0.1) (HBV inhibition greater than 50% at the concentration indicated in the table); EC50: < 1 µM
19 | CCOC(=O)N1CC2COc3c(cn(C)c3C(=O)Nc3ccc(F)c(C(F)F)c3)S(=O)(=O)NC2C1 (racemic) [Example E16, Cis-Ethyl 8-((3-(difluoromethyl)-4-fluorophenyl)carbamoyl)-7-methyl-3a,4,10,10a-tetrahydro-1H,7H-dipyrrolo[3,4-b:3′,4′-f][1,4,5]oxathiazocine-2(3H)-carboxylate 5,5-dioxide] | < 1 µM | inhibition at 0.1 µM [1]: > 50%
20 | Cn1cc2c(c1C(=O)Nc1ccc(F)c(F)c1)OCC1CCCCN1S2(=O)=O (stereo not drawn) [Example E1, N-(3,4-difluorophenyl)-2-methyl-6,7,8,9,9a,10-hexahydro-2H-pyrido[1,2-e]pyrrolo[3,4-b][1,4,5]oxathiazepine-1-carboxamide 4,4-dioxide] | > 1 µM | inhibition at 1 µM (Hepatitis B virus, 1 μM, relative to non-treated reference, read-out: Anti HBV Activity (conc μM)): < 50%
21 | Cc1cc(NC(=O)c2c3c(cn2C)S(=O)(=O)NC2CN(C(=O)C4(C)CCCO4)CC2CO3)ccc1F (stereo not drawn) [Example E148, Trans-N-(4-fluoro-3-methylphenyl)-7-methyl-2-(2-methyltetrahydrofuran-2-carbonyl)-2,3,3a,4,10,10a-hexahydro-1H,7H-dipyrrolo[3,4-b:3′,4′-f][1,4,5]oxathiazocine-8-carboxamide 5,5-dioxide] | < 1 µM | –
22 | CCOC(=O)N1CC2COc3c(cn(C)c3C(=O)Nc3ccc(F)c(C#N)c3)S(=O)(=O)NC2C1 (single isomer, unassigned) [Example E45, Ethyl 8-((3-cyano-4-fluorophenyl)carbamoyl)-7-methyl-3a,4,10,10a-tetrahydro-1H,7H-dipyrrolo[3,4-b:3′,4′-f][1,4,5]oxathiazocine-2(3H)-carboxylate 5,5-dioxide (Chiral 3aS,10aS or 3aR,10aR - Stereochemistry unknown)] | – | Anti HBV Activity (conc μM) (0.05 μM, relative to non-treated reference): A (0.05) (HBV inhibition greater than 50% at the concentration indicated in the table)
